Data: patent US10544143B2, “4-azaindole compounds” (BRISTOL-MYERS SQUIBB COMPANY, priority 2017, dated 2020)
Read-outs that look alike come from different tables or passages of the source.

Key:
[1] = target: human TLR7 (Homo sapiens (Human), UniProt Q9NYK1); test: TLR7 inhibition reporter assay (HEK-Blue SEAP); type: cell-based; conditions: HEK-Blue human TLR7 cells, gardiquimod 7.5 μM
[2] = target: human TLR8 (Homo sapiens (Human), UniProt Q9NR97); test: TLR8 inhibition reporter assay (HEK-Blue SEAP); conditions: R848 15.9 μM;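 note: SEAP driven by IFN-β minimal promoter carrying NF-κB and AP-1 sites, compounds dosed 0.05 nM to 50 µM for 22 h, inhibition scaled between agonist-plus-DMSO and reference-inhibitor wells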
human TLR8, sequence (Q9NR97 27-1041): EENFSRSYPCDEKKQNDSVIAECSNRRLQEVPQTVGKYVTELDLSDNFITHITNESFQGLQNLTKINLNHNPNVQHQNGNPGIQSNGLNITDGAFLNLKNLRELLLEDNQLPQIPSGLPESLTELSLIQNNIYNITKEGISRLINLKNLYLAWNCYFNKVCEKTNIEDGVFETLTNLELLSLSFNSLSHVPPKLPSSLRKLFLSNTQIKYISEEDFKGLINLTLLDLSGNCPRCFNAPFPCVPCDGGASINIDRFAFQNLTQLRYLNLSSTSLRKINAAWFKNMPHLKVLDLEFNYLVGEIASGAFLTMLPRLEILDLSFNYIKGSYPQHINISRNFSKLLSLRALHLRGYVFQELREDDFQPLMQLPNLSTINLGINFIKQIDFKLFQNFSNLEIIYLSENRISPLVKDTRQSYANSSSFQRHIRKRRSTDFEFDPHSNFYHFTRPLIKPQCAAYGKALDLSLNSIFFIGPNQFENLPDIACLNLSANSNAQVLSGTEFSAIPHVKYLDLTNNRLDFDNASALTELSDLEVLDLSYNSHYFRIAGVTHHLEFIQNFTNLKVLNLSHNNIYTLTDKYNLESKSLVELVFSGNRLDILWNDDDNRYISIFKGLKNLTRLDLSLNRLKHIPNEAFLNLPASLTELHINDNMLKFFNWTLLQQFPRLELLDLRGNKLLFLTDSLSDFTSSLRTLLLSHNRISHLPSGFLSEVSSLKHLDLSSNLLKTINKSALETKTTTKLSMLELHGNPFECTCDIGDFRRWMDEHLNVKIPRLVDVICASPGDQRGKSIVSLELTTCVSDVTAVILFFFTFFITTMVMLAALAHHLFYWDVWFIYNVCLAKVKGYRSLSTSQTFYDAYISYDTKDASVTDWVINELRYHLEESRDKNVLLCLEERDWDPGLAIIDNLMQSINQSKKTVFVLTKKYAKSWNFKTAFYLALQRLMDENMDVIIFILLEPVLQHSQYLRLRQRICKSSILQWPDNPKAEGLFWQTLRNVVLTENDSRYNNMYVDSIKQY

[3] = target: human TLR9 (Homo sapiens (Human), UniProt Q9NR96); test: TLR9 inhibition reporter assay (HEK-Blue SEAP); conditions: ODN2006 5 nM;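 note: SEAP driven by an IFN-β minimal promoter with NF-κB and AP-1 sites, read after 22 h, compounds dosed 0.05 nM–50 µM, inhibition scaled between agonist plus DMSO and reference-inhibitor wells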
human TLR9, sequence (Q9NR96 26-1032): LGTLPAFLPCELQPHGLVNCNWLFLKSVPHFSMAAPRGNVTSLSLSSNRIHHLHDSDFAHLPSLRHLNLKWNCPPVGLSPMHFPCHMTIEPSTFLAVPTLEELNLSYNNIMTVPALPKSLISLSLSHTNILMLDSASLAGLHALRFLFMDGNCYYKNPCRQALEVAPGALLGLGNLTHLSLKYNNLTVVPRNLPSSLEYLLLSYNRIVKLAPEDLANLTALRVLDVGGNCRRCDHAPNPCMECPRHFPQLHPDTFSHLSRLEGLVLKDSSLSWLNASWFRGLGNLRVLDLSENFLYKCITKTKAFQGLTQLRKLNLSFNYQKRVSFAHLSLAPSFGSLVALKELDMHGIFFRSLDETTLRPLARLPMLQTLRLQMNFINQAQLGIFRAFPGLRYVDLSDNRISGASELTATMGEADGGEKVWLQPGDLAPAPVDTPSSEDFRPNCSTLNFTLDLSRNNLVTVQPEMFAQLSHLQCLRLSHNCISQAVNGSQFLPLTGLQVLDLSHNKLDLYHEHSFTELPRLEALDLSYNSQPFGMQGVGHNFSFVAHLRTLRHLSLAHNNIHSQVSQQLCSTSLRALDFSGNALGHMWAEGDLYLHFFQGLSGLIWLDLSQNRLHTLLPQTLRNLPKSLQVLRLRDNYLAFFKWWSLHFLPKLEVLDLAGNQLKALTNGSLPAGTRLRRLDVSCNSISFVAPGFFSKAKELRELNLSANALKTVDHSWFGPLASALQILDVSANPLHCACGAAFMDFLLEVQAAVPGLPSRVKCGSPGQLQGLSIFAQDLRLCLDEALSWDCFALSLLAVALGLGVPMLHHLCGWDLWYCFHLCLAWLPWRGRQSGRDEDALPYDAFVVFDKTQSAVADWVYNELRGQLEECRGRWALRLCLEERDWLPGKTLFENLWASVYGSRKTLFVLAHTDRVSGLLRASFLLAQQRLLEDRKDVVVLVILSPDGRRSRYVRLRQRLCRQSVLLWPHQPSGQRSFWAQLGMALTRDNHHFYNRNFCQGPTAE

[4] = read-out: TLR8 IC50, HEK-Blue human TLR8 cells
[5] = read-out: TLR9 IC50, HEK-Blue human TLR9 cells

human TLR7, sequence (Q9NYK1 27-1049): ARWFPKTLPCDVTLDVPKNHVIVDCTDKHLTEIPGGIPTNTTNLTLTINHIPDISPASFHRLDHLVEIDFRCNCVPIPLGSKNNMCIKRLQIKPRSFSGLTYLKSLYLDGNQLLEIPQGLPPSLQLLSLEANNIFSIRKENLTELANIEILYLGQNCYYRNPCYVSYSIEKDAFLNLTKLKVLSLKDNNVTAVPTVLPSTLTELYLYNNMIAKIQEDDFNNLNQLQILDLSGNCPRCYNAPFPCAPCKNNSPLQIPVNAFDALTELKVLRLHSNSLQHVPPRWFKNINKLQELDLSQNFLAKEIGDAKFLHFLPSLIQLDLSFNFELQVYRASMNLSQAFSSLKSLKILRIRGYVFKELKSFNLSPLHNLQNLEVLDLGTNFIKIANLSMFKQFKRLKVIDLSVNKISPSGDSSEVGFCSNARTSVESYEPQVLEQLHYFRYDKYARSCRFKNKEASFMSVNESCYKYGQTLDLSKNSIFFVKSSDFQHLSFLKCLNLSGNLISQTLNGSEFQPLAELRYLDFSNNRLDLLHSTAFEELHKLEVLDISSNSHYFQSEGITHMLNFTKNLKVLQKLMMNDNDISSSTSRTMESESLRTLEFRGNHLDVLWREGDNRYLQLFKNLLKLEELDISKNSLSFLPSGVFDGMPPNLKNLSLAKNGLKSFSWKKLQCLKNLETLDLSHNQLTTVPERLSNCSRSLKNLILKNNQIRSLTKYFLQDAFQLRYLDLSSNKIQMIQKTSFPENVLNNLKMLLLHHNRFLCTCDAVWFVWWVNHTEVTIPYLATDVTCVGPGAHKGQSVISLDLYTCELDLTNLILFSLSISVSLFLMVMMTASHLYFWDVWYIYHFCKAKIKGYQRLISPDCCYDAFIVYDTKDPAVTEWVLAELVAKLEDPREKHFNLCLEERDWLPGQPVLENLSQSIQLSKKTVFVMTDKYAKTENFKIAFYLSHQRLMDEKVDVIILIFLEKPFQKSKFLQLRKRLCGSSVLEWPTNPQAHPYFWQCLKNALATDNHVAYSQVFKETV

| Structure (SMILES) | IC50 [1] [nM] | IC50 [2, 4] [nM] | IC50 [3, 5] [nM] | IC50 ([2]; TLR8 IC50, HEK-Blue human TLR8 cells) [nM] | IC50 ([3]; TLR9 IC50, HEK-Blue human TLR9 cells) [nM] |
| --- | --- | --- | --- | --- | --- |
| Cc1c(-c2[nH]c3ccc(N4C[C@@H](C)N(C(=O)CN(C)C)C[C@@H]4C)nc3c2C(C)C)cn2ncnc2c1C [Example 842] | 0.38 | 0.47 | 6920 | – | – |
| Cc1c(-c2[nH]c3ccc(N4C[C@@H](C)N(C(=O)CCN(C)C)C[C@@H]4C)nc3c2C(C)C)cn2ncnc2c1C [Example 843] | 0.52 | 1.4 | 5480 | – | – |
| Cc1c(-c2[nH]c3ccc(N4C[C@@H](C)N(C(C)C)C[C@@H]4C)nc3c2C(C)C)cn2ncnc2c1C [Example 844] | 2 | 11 | 8820 | – | – |
| Cc1c(-c2[nH]c3ccc(N4C[C@H](C)N(CCCS(C)(=O)=O)C[C@H]4C)nc3c2C(C)C)cn2ncnc2c1C [Example 845] | 7.2 | 14 | 21300 | – | – |
| Cc1c(-c2[nH]c3ccc(N4C[C@H](C)N(CCC(N)=O)C[C@H]4C)nc3c2C(C)C)cn2ncnc2c1C [Example 847] | 4.9 | 8.3 | 22500 | – | – |
| Cc1c(-c2[nH]c3ccc(N4C[C@@H](C)N(CCC(N)=O)C[C@@H]4C)nc3c2C(C)C)cn2ncnc2c1C [Example 848] | 1.2 | 2.2 | 17500 | – | – |
| Cc1c(-c2[nH]c3ccc(N4CCN(CCC(N)=O)[C@H](C)C4)nc3c2C(C)C)cn2ncnc2c1C [Example 852] | 5.2 | 0.82 | 16200 | – | – |
| Cc1c(-c2[nH]c3ccc(N4CCN(C(=O)[C@H](C)N(C)C)CC4)nc3c2C(C)C)cn2ncnc2c1C [Example 853] | 0.51 | 0.66 | 9570 | – | – |
| Cc1c(-c2[nH]c3ccc(N4CCN(CCCS(C)(=O)=O)[C@H](C)C4)nc3c2C(C)C)cn2ncnc2c1C [Example 856] | 7.3 | 0.46 | 27100 | – | – |
| [2H]C1([2H])NC([2H])([2H])C([2H])([2H])N(c2ccc3[nH]c(-c4cn5ncnc5c(C)c4C)c(C(C)C)c3n2)C1([2H])[2H] [Example 857] | 0.65 | – | – | 0.4 | 4400 |
| Cc1c(-c2[nH]c3ccc(N4C[C@@H](C)N(C(=O)CCN(C)C)[C@@H](C)C4)nc3c2C(C)C)cn2ncnc2c1C [Example 860] | 0.3 | 0.62 | 5060 | – | – |
| Cc1c(-c2[nH]c3ccc(N4[C@H](C)CNC[C@H]4C)nc3c2C(C)C)cn2ncnc2c1C [Example 861] | 0.31 | 4.2 | 5010 | – | – |
| Cc1c(-c2[nH]c3ccc(N4C[C@@H](C)N(C(=O)CN(C)C)[C@@H](C)C4)nc3c2C(C)C)cn2ncnc2c1C [Example 862] | 0.29 | 2.2 | 7040 | – | – |
| Cc1c(-c2[nH]c3ccc(N4[C@H](C)CN(C(=O)CN(C)C)C[C@H]4C)nc3c2C(C)C)cn2ncnc2c1C [Example 863] | 0.52 | 17 | 6060 | – | – |
| Cc1c(-c2[nH]c3ccc(N4[C@H](C)CN(C(=O)CCN(C)C)C[C@H]4C)nc3c2C(C)C)cn2ncnc2c1C [Example 864] | 1.5 | 12 | 5690 | – | – |
| Cc1c(-c2[nH]c3ccc(N4[C@H](C)CN(C(C)C)C[C@H]4C)nc3c2C(C)C)cn2ncnc2c1C [Example 865] | 1.3 | 72 | 8890 | – | – |
| Cc1c(-c2[nH]c3ccc(N4[C@H](C)CN(CC(N)=O)C[C@H]4C)nc3c2C(C)C)cn2ncnc2c1C [Example 866] | 3.2 | 74 | 47600 | – | – |
| Cc1c(-c2[nH]c3ccc(N4C[C@@H](C)N(CC(N)=O)[C@@H](C)C4)nc3c2C(C)C)cn2ncnc2c1C [Example 867] | 4.5 | 11 | > 50000 | – | – |
| Cc1c(-c2[nH]c3ccc(N4C[C@@H](C)N(CCCS(C)(=O)=O)[C@@H](C)C4)nc3c2C(C)C)cn2ncnc2c1C [Example 868] | 12 | 6.1 | > 50000 | – | – |
| Cc1c(-c2[nH]c3ccc(N4[C@H](C)CN(CCCS(C)(=O)=O)C[C@H]4C)nc3c2C(C)C)cn2ncnc2c1C [Example 869] | 1.9 | 34 | 40300 | – | – |
| Cc1c(-c2[nH]c3ccc(N4C[C@@H](C)N[C@H](C)C4)nc3c2C(C)C)cn2ncnc2c1C [Example 884] | 0.9 | 0.17 | 6500 | – | – |
| Cc1c(-c2[nH]c3ccc(N4C[C@@H](C)N(C(=O)CN(C)C)[C@H](C)C4)nc3c2C(C)C)cn2ncnc2c1C [Example 885] | 1.6 | 3.8 | 7850 | – | – |
| Cc1c(-c2[nH]c3ccc(N4C[C@@H](C)N(C(=O)CCN(C)C)[C@H](C)C4)nc3c2C(C)C)cn2ncnc2c1C [Example 886] | 2.8 | 1.7 | 2570 | – | – |
| Cc1c(-c2[nH]c3ccc(N4C[C@@H](C)N(C(=O)CCN5CCC5)C[C@@H]4C)nc3c2C(C)C)cn2ncnc2c1C [Example 892] | 0.62 | 1.4 | 3280 | – | – |
| CCN(C)CC(=O)N1C[C@H](C)N(c2ccc3[nH]c(-c4cn5ncnc5c(C)c4C)c(C(C)C)c3n2)C[C@H]1C [Example 893] | 0.34 | 0.74 | 7440 | – | – |
| CCCN(C)CC(=O)N1C[C@H](C)N(c2ccc3[nH]c(-c4cn5ncnc5c(C)c4C)c(C(C)C)c3n2)C[C@H]1C [Example 894] | 0.37 | 0.89 | 10800 | – | – |
| Cc1c(-c2[nH]c3ccc(N4C[C@@H](C)N(C(=O)CN5CC6(COC6)C5)C[C@@H]4C)nc3c2C(C)C)cn2ncnc2c1C [Example 896] | 0.69 | 0.37 | 8440 | – | – |

Other lines, results leading:

| IC50 [1] [nM] | IC50 [2, 4] [nM] | IC50 [3, 5] [nM] | IC50 ([2]; TLR8 IC50, HEK-Blue human TLR8 cells) [nM] | IC50 ([3]; TLR9 IC50, HEK-Blue human TLR9 cells) [nM] | Structure (SMILES) |
| --- | --- | --- | --- | --- | --- |
| 0.72 | 1.6 | 6540 | – | – | Cc1c(-c2[nH]c3ccc(N4CCN(C(=O)CCN(C)C)[C@H](C)C4)nc3c2C(C)C)cn2ncnc2c1C [Example 850] |
| 5.9 | 2.2 | 9980 | – | – | Cc1c(-c2[nH]c3ccc(N4CCN(C(C)C)[C@H](C)C4)nc3c2C(C)C)cn2ncnc2c1C [Example 851] |
| 11 | 5 | 32300 | – | – | Cc1c(-c2[nH]c3ccc(N4CCN(C(=O)C5(N(C)C)CC5)CC4)nc3c2C(C)C)cn2ncnc2c1C [Example 854] |
| 0.56 | 3.3 | 14400 | – | – | CCN(C)CC(=O)N1CCN(c2ccc3[nH]c(-c4cn5ncnc5c(C)c4C)c(C(C)C)c3n2)CC1 [Example 870] |
| 1.6 | 5.1 | 12700 | – | – | CCN(CC)CC(=O)N1CCN(c2ccc3[nH]c(-c4cn5ncnc5c(C)c4C)c(C(C)C)c3n2)CC1 [Example 871] |
| 0.97 | 3.8 | 9540 | – | – | Cc1c(-c2[nH]c3ccc(N4CCN(C(=O)CN(C)C(C)C)CC4)nc3c2C(C)C)cn2ncnc2c1C [Example 872] |
| 3.1 | 1.8 | 12800 | – | – | CCCN(C)CC(=O)N1CCN(c2ccc3[nH]c(-c4cn5ncnc5c(C)c4C)c(C(C)C)c3n2)CC1 [Example 873] |
| 1.2 | 5.3 | 15500 | – | – | CCCCN(C)CC(=O)N1CCN(c2ccc3[nH]c(-c4cn5ncnc5c(C)c4C)c(C(C)C)c3n2)CC1 [Example 874] |
| 6.6 | 3.2 | 40500 | – | – | Cc1c(-c2[nH]c3ccc(N4CCN(C(=O)CN(C)CC(C)C)CC4)nc3c2C(C)C)cn2ncnc2c1C [Example 875] |
| 644 | 517 | 13300 | – | – | CCCCN(CC)CC(=O)N1CCN(c2ccc3[nH]c(-c4cn5ncnc5c(C)c4C)c(C(C)C)c3n2)CC1 [Example 876] |
| 1.5 | 1.6 | 12600 | – | – | Cc1c(-c2[nH]c3ccc(N4CCN(C(=O)CNC(C)(C)C)CC4)nc3c2C(C)C)cn2ncnc2c1C [Example 877] |
| 0.48 | 2.2 | 9040 | – | – | Cc1c(-c2[nH]c3ccc(N4CCN(C(=O)CN(C)C(C)(C)C)CC4)nc3c2C(C)C)cn2ncnc2c1C [Example 878] |
| 1 | 3.4 | 7550 | – | – | CCN(CC(=O)N1CCN(c2ccc3[nH]c(-c4cn5ncnc5c(C)c4C)c(C(C)C)c3n2)CC1)C(C)C [Example 879] |
| 6.4 | 30 | 19300 | – | – | Cc1c(-c2[nH]c3ccc(N4CCN(C(=O)CN(CC(C)C)C(C)C)CC4)nc3c2C(C)C)cn2ncnc2c1C [Example 880] |
| 25 | 68 | 43500 | – | – | Cc1c(-c2[nH]c3ccc(N4CCN(C(=O)CN(CC(C)C)CC(C)C)CC4)nc3c2C(C)C)cn2ncnc2c1C [Example 881] |
| 3.3 | 11 | 7760 | – | – | CCCCN(CC(=O)N1CCN(c2ccc3[nH]c(-c4cn5ncnc5c(C)c4C)c(C(C)C)c3n2)CC1)C(C)C [Example 882] |
| 7.4 | 2.3 | 12500 | – | – | Cc1c(-c2[nH]c3ccc(N4CCN(C(=O)CN(C(C)C)C(C)C)CC4)nc3c2C(C)C)cn2ncnc2c1C [Example 883] |
| 0.5 | 0.68 | 8120 | – | – | Cc1c(-c2[nH]c3ccc(N4CCN(C(=O)CN(C)C)[C@@H](C)C4)nc3c2C(C)C)cn2ncnc2c1C [Example 887] |
| 0.74 | 1.1 | 7930 | – | – | CCN(CC)CC(=O)N1C[C@H](C)N(c2ccc3[nH]c(-c4cn5ncnc5c(C)c4C)c(C(C)C)c3n2)C[C@H]1C [Example 895] |
| 0.86 | 1.5 | 12000 | – | – | CCN(C)CC(=O)N1CCN(c2ccc3[nH]c(-c4cn5ncnc5c(C)c4C)c(C(C)C)c3n2)C[C@@H]1C [Example 897] |
| 2.1 | 3.2 | 17300 | – | – | CCN(CC)CC(=O)N1CCN(c2ccc3[nH]c(-c4cn5ncnc5c(C)c4C)c(C(C)C)c3n2)C[C@@H]1C [Example 898] |
